Measured values reported in PubChem BioAssay (NCI).
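96-well plates; 48 h exposure; 5 concentrations. Endpoints by linear interpolation between flanking doses. Not reached: highest tested concentration assigned. At the TGI there is no net growth.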

Columns and labels:
Assay in all cases: DTP human tumour cell line panel, 48 h
[1] = tested on: HT29 colon
[2] = tested on: HS 578T breast
[3] = tested on: UACC-257 melanoma
[4] = tested on: IGROV1 ovarian
[5] = tested on: M14 melanoma
[6] = tested on: NCI-H226 lung
[7] = tested on: HOP-62 NSCLC
[8] = tested on: BT-549 breast
[9] = tested on: NCI-H522 lung
[10] = tested on: CAKI-1 renal
[11] = tested on: RPMI-8226 leukemia
[12] = tested on: HCT-116 colon
[13] = tested on: HL-60(TB) leukemia
[14] = tested on: K-562 leukemia
[15] = tested on: LOX IMVI melanoma
[16] = tested on: SN12C renal
[17] = tested on: U251 CNS
[18] = tested on: MDA-N
[19] = tested on: SNB-75 CNS
[20] = tested on: SR leukemia

SMILES	TGI [1] [µM]	TGI [2] [µM]	TGI [3] [µM]	TGI [4] [µM]	TGI [5] [µM]	TGI [6] [µM]	TGI [7] [µM]	TGI [8] [µM]	TGI [9] [µM]	TGI [10] [µM]	TGI [11] [µM]	TGI [12] [µM]	TGI [13] [µM]	TGI [14] [µM]	TGI [15] [µM]	TGI [16] [µM]	TGI [17] [µM]	TGI [18] [µM]	TGI [19] [µM]	TGI [20] [µM]
O=C1CCC(=O)N1CNc1ccc2c(c1)S(=O)(=O)c1ccccc1O2	> 100	> 100	> 100	> 100	> 100	> 100	> 100	> 100	> 100	> 100	> 100	> 100	> 100	> 100	> 100	> 100	> 100	> 100		
COC(=O)c1cc(OS(=O)(=O)C(F)(F)F)c(=O)n2c1CCCC2	> 100	> 100	> 100	> 100	> 100	> 100	> 100	> 100	> 100	> 100		> 100	> 100		> 100	> 100	> 100	> 100	> 100	
CCN(CC)Cc1ccccc1CC(=O)N1c2ccccc2C(=O)Nc2cccnc21	> 100	> 100	> 100	> 100	> 100	> 100	> 100		> 100	> 100	> 100	> 100	> 100	> 100	> 100	> 100	> 100	> 100		72.2
CC(C)(C)c1cc2c(c(C(C)(C)C)c1O)CC(=O)O2	> 100	97.3	75.7	89.3	62.5	74.7	92.8		> 100		65	> 100	86.8	> 100	> 100	> 100	> 100	> 100		
COC(=O)C1CCC(=O)N1CN(C(C)=O)c1cc(OC)ccc1OC (stereo not drawn)	> 100	> 100	> 100	> 100	> 100	> 100	> 100		> 100	> 100	> 100	> 100	> 100	> 100	> 100	> 100	> 100	> 100	> 100	> 100
Cc1c(O)c(OC2OC(CO)C(O)C(O)C2O)cc2c1C=C[C@@H]1[C@@]2(C)C(=O)C[C@]2(C)[C@@H]([C@@](C)(O)C(O)/C=C/C(C)(C)O)[C@H](O)C[C@@]12C (stereo partly drawn)	> 100		> 100	> 100	> 100	> 100	> 100	> 100	> 100	> 100		> 100	> 100	> 100	> 100	> 100	> 100	> 100	> 100	> 100
Cc1c[nH]c(C(=O)O)c1-c1cccn1-c1ccc(Cl)cc1[N+](=O)[O-]	> 100	> 100	> 100	> 100	> 100	> 100	> 100	> 100	> 100	> 100		> 100		> 100	> 100	> 100	> 100	> 100	> 100	> 100
Cn1nc2ccc([N+](=O)[O-])cc2[n+]1[O-]	> 100	> 100	> 100	> 100	> 100	> 100	> 100	> 100	> 100	> 100		> 100		> 100		> 100	> 100	> 100	> 100	> 100
CC(=O)OC1OC(c2ccoc2)C[C@@]12C1CCC3O[C@]3(C)[C@]1(C)[C@H](OC(C)=O)[C@H](OC(C)=O)[C@H]2C (stereo partly drawn)	> 37.5	> 37.5	> 37.5	> 37.5	> 37.5	> 37.5	> 37.5	> 37.5		> 37.5		> 37.5	> 37.5	> 37.5	> 37.5	> 37.5	> 37.5	> 37.5		> 37.5
c1ccc2c(c1)nn1c3ccc4nonc4c3[n-][n+]21	> 100		> 100	> 100	> 100	> 100	> 100	> 100	> 100	> 100	> 100	> 100	> 100	> 100	> 100	> 100	> 100	> 100	> 100	> 100
CN(C)CCNCc1ccc2c(-c3ccccc3)nc3cc(Cl)c(Cl)cc3n12	16.7	47.6	19.9	22.6	15.3	37.5	27.4	30.9	27.8	18.9	36.8	16.3	11.6	31.9	14.9	24.2	22.7	23.4	20.2	
C[C@@H](CC(=O)O)OC1OC(COC(=O)C(C)(C)C)C(OC(=O)C(C)(C)C)C(OC(=O)C(C)(C)C)C1OC(=O)C(C)(C)C (stereo partly drawn)	> 100	> 100	> 100	> 100	> 100	> 100	> 100	> 100	> 100	> 100	71.8	> 100	46.3	> 100	> 100	> 100	> 100	> 100	> 100	
COc1ccc2c(c1)c1c(n2CCN2CCOCC2)-c2cccc(OC)c2CC1	32.2	> 100	> 100	> 100	> 100	52.9	> 100	> 100	89	> 100	68.1	> 100		> 100		> 100	> 100	> 100		35.3
c1csc(-c2nccc3c2[nH]c2ccccc23)c1	29.3	> 100	35.7	37.4	31.6	32	39.2		41.5	71.5		31.8	55.9	63.8	39.7	38.8	75.9	35.4	42.8	48
CC1=NN(c2nc(N)nc(CSc3cc(Cl)c(C)cc3S(N)(=O)=O)n2)C(C)(C)C1	> 10	> 10	> 10	> 10	> 10	> 10	> 10	> 10	> 10	> 10	> 10	> 10	> 10	> 10	> 10	> 10	> 10	> 10	> 10	
O=c1[nH]nc(-c2ccccc2)n1/N=C/c1ccco1	> 100	> 100	> 100	> 100	> 100		> 100	94.2	> 100	> 100		> 100	> 100		> 100	> 100	> 100	> 100	> 100	> 100
COc1cc2oc(=O)cc(C)c2c(OC)c1O	> 100	65	> 100	> 100	> 100	> 100	> 100				> 100	> 100		> 100	> 100	> 100	> 100	> 100	> 100	> 100
CSc1nc(Nc2ccccc2Cl)c2c(N)nn(C)c2n1	> 100	> 100	> 100	> 100	> 100	> 100	> 100	> 100	> 100	> 100	> 100	> 100		> 100	> 100	> 100	> 100	> 100		
O=C(O)c1nc2ccc(Cl)cc2[nH]c1=O	> 100	> 100	> 100	> 100	> 100	> 100	> 100	> 100	> 100	> 100	> 100	> 100	> 100	> 100	> 100	> 100	> 100	> 100		> 100
O=C1CNC(=O)/C(=C/c2c[nH]c3ccccc23)N1	> 100	> 100	> 100	> 100	> 100	> 100	> 100	> 100	> 100	> 100	> 100	> 100	> 100	> 100	> 100	> 100		> 100		
S=C=Nc1ccc(CSc2nc3ccccc3[nH]2)cc1	32.6	> 100	34.1	33.7			32.1		19.1	33.5	52.5	44.5	> 100	> 100	35.6	31.3	30.9	40.7	32	65.4
CC(C)=NNc1snnc1C(N)=O	> 100	> 100	> 100	> 100	> 100	> 100	> 100	> 100	> 100	> 100	> 100	> 100	> 100	> 100	> 100	> 100	> 100	> 100	> 100	
C[C@@H]1[C@H](O)CC2=C(CC[C@@H](O)C2(C)C)[C@@]1(CO)CCc1ccoc1	> 50	> 50	> 50	> 50	> 50	> 50	> 50	> 50		> 50		> 50	> 50	> 50	> 50	> 50	> 50	> 50	> 50	> 50
Cc1ccc(S(=O)(=O)N2CCCSCCSCCCN(S(=O)(=O)c3ccc(C)cc3)CC2)cc1	> 100	> 100	> 100	> 100	> 100	> 100	> 100	> 100			> 100	> 100				> 100	> 100	> 100	> 100	
O=C(CC(O)(C(F)(F)F)C(F)(F)Cl)CC(O)(C(F)(F)F)C(F)(F)Cl (stereo not drawn)	> 10	6.69	4.59	> 10	> 10	6.92	5.85		8.78	> 10	> 10	5.31	> 10	> 10	7.34	9.8	8.39	> 10	> 10	> 10
COC(=O)[C@H](Cc1ccccc1)NC(=O)N(CCC#N)CCCCN(CCC#N)C(=O)N[C@@H](Cc1ccccc1)C(=O)OC		> 100	> 100		> 100	> 100	> 100	> 100	> 100	> 100	> 100	> 100		> 100	> 100	> 100	> 100	> 100	> 79.1	
